Test results: paper PMC11087268, “A folate inhibitor exploits metabolic differences in Pseudomonas aeruginosa for narrow-spectrum targeting” (Nature Microbiology, 2024)

Test system: P. aeruginosa PA14
Experiment: Growth of P. aeruginosa PA14 in TMI-supplemented media with fluorofolin
Format: cell-based, Pseudomonas aeruginosa

With Nc1nc(N)c2c(ccc3c2ccn3Cc2ccnc(F)c2)n1 [fluorofolin] the “OD600 of P. Aeruginosa PA14” value (Fluorofolin + TMI, Time 533.84 min) was 0.0189, the “OD600 of P. Aeruginosa PA14” value (Fluorofolin + TMI, Time 544.517 min) was 0.0184 and the “OD600 of P. Aeruginosa PA14” value (Fluorofolin + TMI, Time 555.193 min) was 0.01805. The “OD600 of P. Aeruginosa PA14” value (Fluorofolin + TMI, Time 565.87 min) was 0.0187, the “OD600 of P. Aeruginosa PA14” value (Fluorofolin + TMI, Time 576.547 min) was 0.01815 and the “OD600 of P. Aeruginosa PA14” value (Fluorofolin, Time 0 min) was -0.00105. The “OD600 of P. Aeruginosa PA14” value (Fluorofolin, Time 64.0617 min) was 0.00425, the “OD600 of P. Aeruginosa PA14” value (Fluorofolin, Time 74.7383 min) was 0.0047 and the “OD600 of P. Aeruginosa PA14” value (Fluorofolin, Time 85.415 min) was 0.00495. For the same compound, the “OD600 of P. Aeruginosa PA14” value (Fluorofolin, Time 96.0917 min) was 0.00565, the “OD600 of P. Aeruginosa PA14” value (Fluorofolin, Time 106.768 min) was 0.006 and the “OD600 of P. Aeruginosa PA14” value (Fluorofolin, Time 117.445 min) was 0.0073. The “OD600 of P. Aeruginosa PA14” value (Fluorofolin, Time 128.123 min) was 0.0085, the “OD600 of P. Aeruginosa PA14” value (Fluorofolin, Time 138.8 min) was 0.00865 and the “OD600 of P. Aeruginosa PA14” value (Fluorofolin, Time 149.477 min) was 0.0096. The “OD600 of P. Aeruginosa PA14” value (Fluorofolin, Time 160.153 min) was 0.01045, the “OD600 of P. Aeruginosa PA14” value (Fluorofolin, Time 170.83 min) was 0.01095 and the “OD600 of P. Aeruginosa PA14” value (Fluorofolin, Time 181.507 min) was 0.01175. The “OD600 of P. Aeruginosa PA14” value (Fluorofolin, Time 192.183 min) was 0.0127, the “OD600 of P. Aeruginosa PA14” value (Fluorofolin, Time 202.86 min) was 0.0136 and the “OD600 of P. Aeruginosa PA14” value (Fluorofolin, Time 213.537 min) was 0.01395. The “OD600 of P. Aeruginosa PA14” value (Fluorofolin, Time 224.213 min) was 0.01515, the “OD600 of P. Aeruginosa PA14” value (Fluorofolin, Time 234.89 min) was 0.01575 and the “OD600 of P. Aeruginosa PA14” value (Fluorofolin, Time 245.567 min) was 0.0166. The “OD600 of P. Aeruginosa PA14” value (Fluorofolin, Time 256.243 min) was 0.0165, the “OD600 of P. Aeruginosa PA14” value (Fluorofolin, Time 266.922 min) was 0.01705 and the “OD600 of P. Aeruginosa PA14” value (Fluorofolin, Time 277.598 min) was 0.01815. For the same compound, the “OD600 of P. Aeruginosa PA14” value (Fluorofolin, Time 288.275 min) was 0.01805, the “OD600 of P. Aeruginosa PA14” value (Fluorofolin, Time 298.952 min) was 0.0199 and the “OD600 of P. Aeruginosa PA14” value (Fluorofolin, Time 309.628 min) was 0.0191. For the same compound, the “OD600 of P. Aeruginosa PA14” value (Fluorofolin, Time 320.305 min) was 0.0205, the “OD600 of P. Aeruginosa PA14” value (Fluorofolin, Time 330.982 min) was 0.01975 and the “OD600 of P. Aeruginosa PA14” value (Fluorofolin, Time 341.658 min) was 0.0208. The “OD600 of P. Aeruginosa PA14” value (Fluorofolin, Time 352.335 min) was 0.0206, the “OD600 of P. Aeruginosa PA14” value (Fluorofolin, Time 363.012 min) was 0.02055 and the “OD600 of P. Aeruginosa PA14” value (Fluorofolin, Time 373.688 min) was 0.0208. The “OD600 of P. Aeruginosa PA14” value (Fluorofolin, Time 384.365 min) was 0.02105, the “OD600 of P. Aeruginosa PA14” value (Fluorofolin, Time 395.042 min) was 0.02085 and the “OD600 of P. Aeruginosa PA14” value (Fluorofolin, Time 405.718 min) was 0.02185. For the same compound, the “OD600 of P. Aeruginosa PA14” value (Fluorofolin, Time 416.395 min) was 0.02155, the “OD600 of P. Aeruginosa PA14” value (Fluorofolin, Time 427.072 min) was 0.02275 and the “OD600 of P. Aeruginosa PA14” value (Fluorofolin, Time 437.748 min) was 0.02165. The “OD600 of P. Aeruginosa PA14” value (Fluorofolin, Time 448.425 min) was 0.0225, the “OD600 of P. Aeruginosa PA14” value (Fluorofolin, Time 459.102 min) was 0.0221 and the “OD600 of P. Aeruginosa PA14” value (Fluorofolin, Time 469.78 min) was 0.0226. The “OD600 of P. Aeruginosa PA14” value (Fluorofolin, Time 480.457 min) was 0.02355, the “OD600 of P. Aeruginosa PA14” value (Fluorofolin, Time 491.133 min) was 0.02265 and the “OD600 of P. Aeruginosa PA14” value (Fluorofolin, Time 501.81 min) was 0.02275. The “OD600 of P. Aeruginosa PA14” value (Fluorofolin, Time 512.487 min) was 0.023, the “OD600 of P. Aeruginosa PA14” value (Fluorofolin, Time 523.163 min) was 0.02375 and the “OD600 of P. Aeruginosa PA14” value (Fluorofolin, Time 533.84 min) was 0.02255. The “OD600 of P. Aeruginosa PA14” value (Fluorofolin, Time 544.517 min) was 0.02295, the “OD600 of P. Aeruginosa PA14” value (Fluorofolin, Time 555.193 min) was 0.0233 and the “OD600 of P. Aeruginosa PA14” value (Fluorofolin, Time 565.87 min) was 0.02345. The “OD600 of P. Aeruginosa PA14” value (Fluorofolin, Time 576.547 min) was 0.0235 and the “rescue of growth inhibition by TMI supplementation” value (P. aeruginosa PA14, 0.3 mM TMI, fluorofolin 2× MIC) was “unable to rescue”.
